Experimental data published in patent US12358915B2, “METTL3 inhibitory compounds” (STORM THERAPEUTICS LTD., priority 2019, dated 2025).
pIC50: −log10 of the molar value. Read-outs that look alike come from different tables or passages of the source.

Tests used:
METTL3/14 = biological target: T1, METTL3/14 (Homo sapiens, UniProt Q86U44); assay: METTL3/14 methyltransferase assay (METTL3_14 RFMS, RapidFire mass spectrometry); type: biochemical; conditions: read-out: METTL3_14 RFMS IC50;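 further: recombinant His-tagged METTL3 with FLAG-tagged METTL14 from baculovirus, SAH product quantified by mass spectrometry against isotope-labelled internal standards, 60 min at room temperature, scaled between no-RNA and DMSO-only wells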
T1 construct: The enzyme used was full-length his-tagged METTL3; His; made in house

MOLM-13 cells = assay: MOLM13 CTG - analysis of cell proliferation (Cell Titre Glo); type: cell-based; conditions: Homo sapiens, geometric mean, read-out: CTG MOLM13 cells IC50 GEOMEAN
Method: MOLM-13 or MOLM-14 cells were plated, in suspension, in 24 well tissue culture plates at final concentration of 200,000/ml, with or without 50 ng/ml IFNγ. […] Cells were incubated for 4 days at 37° C. at which point 600 μl of cell suspension was removed for Mass spectrometry analysis of m6A. 600 μl of fresh media containing the appropriate concentration of METTL3 inhibitor/IFNγ was added to remaining cell suspensions. Cells where then cultured for a further 7 days, cell suspension was sampled for analysis of proliferation and Cell surface markers periodically.
At regular time points (4, 5, 6 &7) days cells were mixed to maintain a homogenous cell suspension. 25 μl of this cell suspension was removed and added to a white 384 well plate, 25 μl of Cell Titre Glo reagent (Promega) was added, and incubated for 10 mins at room temperature before measurement of luminescence intensity, as per the manufacturers instructions.

[1] = 5 nM METTL3/14, 0.2 μM RNA substrate, 0.5 μM SAM, lower limit of the assay IC50=5 nM, Compounds 63-265

T1 sequence (Q86U44 whole entry): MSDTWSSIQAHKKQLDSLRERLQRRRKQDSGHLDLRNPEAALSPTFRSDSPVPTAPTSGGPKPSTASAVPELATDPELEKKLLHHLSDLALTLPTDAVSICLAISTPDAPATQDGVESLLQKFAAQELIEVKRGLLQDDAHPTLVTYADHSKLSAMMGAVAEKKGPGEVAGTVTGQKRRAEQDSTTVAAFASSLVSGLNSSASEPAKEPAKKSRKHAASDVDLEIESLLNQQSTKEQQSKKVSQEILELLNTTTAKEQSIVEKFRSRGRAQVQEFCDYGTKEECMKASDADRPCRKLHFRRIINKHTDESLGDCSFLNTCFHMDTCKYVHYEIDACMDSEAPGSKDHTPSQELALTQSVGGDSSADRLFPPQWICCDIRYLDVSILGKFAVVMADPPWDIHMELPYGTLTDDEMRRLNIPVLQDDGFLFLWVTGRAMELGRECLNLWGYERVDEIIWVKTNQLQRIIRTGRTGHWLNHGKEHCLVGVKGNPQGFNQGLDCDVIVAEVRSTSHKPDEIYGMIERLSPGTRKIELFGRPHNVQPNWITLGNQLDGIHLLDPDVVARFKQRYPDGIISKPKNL
T1 sequence (Q9HCE5 whole entry partner): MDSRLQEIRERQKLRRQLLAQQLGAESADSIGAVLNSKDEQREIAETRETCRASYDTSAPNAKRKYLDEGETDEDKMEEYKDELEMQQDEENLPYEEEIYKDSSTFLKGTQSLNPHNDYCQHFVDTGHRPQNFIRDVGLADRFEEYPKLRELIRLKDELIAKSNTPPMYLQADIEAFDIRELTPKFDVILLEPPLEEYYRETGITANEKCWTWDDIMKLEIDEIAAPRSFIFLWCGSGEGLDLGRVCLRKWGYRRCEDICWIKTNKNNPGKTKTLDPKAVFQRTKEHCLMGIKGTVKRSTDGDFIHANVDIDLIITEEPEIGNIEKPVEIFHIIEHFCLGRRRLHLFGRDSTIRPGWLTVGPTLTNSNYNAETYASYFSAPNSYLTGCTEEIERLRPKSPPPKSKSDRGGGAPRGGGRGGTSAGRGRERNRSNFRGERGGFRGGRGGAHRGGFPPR

Structure (SMILES) | pIC50 (METTL3/14; 5 nM METTL3/14, 0.2 μM RNA substrate, 0.5 μM SAM, lower limit of the assay IC50=5 nM, Compounds 266-351) | pIC50 (MOLM-13 cells) | pIC50 (METTL3/14; [1]) | pIC50 (METTL3/14)
O=C1CC(c2ccc3nc(CNC(=O)c4cc(=O)n5ccccc5n4)cn3c2)NC(C2CCCCC2)C1 (mixture of isomers) [Example 334, N-[[6-(6-cyclohexyl-4-oxo-2-piperidyl)imidazo[1,2-a]pyridin-2-yl]methyl]-4-oxo-pyrido[1,2-a]pyrimidine-2-carboxamide] | 6.91 | 4.75 |  | 
O=C(NCc1cn2cc(CNCC3CCCCC3)ccc2n1)c1cc(=O)n2ccccc2n1 [Compound 72, N-[(6-{[(cyclohexyl-methyl)amino]methyl}imidazo [1,2-a]pyridin-2-yl)methyl]-4-oxo-4H-pyrido [1,2-a]pyrimidine-2-carboxamide] |  | 5.06 |  | 
CN(Cc1ccccc1)Cc1ccc2nc(CNC(=O)c3cc(=O)n4ccccc4n3)cn2c1 [Compound 74, N-[(6-{[benzyl (methyl)amino]methyl}imidazo [1,2-a]pyridin-2-yl)methyl]-4-oxo-4H-pyrido [1,2-a]pyrimidine-2-carboxamide] |  | ≤ 4.52 | 6.91 | 
CC(C)(NCc1ccc2nc(CNC(=O)c3cc(=O)n4ccccc4n3)cn2c1)c1ccccc1 [Compound 78, 4-oxo-N-[(6-{[(2-phenylpropan-2-yl)amino]methyl}imidazo[1,2-a]pyridin-2-yl)methyl]-4H-pyrido[1,2-a]pyrimidine-2-carboxamide] |  | 5.22 | 6.79 | 
O=C(NCc1cn2cc(CNCC3CC(F)(F)C3)ccc2n1)c1cc(=O)n2ccccc2n1 [Compound 83, N-{[6-({[(3,3-difluoro-cyclobutyl)methyl]amino}methyl)imidazo[1,2-a]pyridin-2-yl]methyl}-4-oxo-4H-pyrido [1,2-a]pyrimidine-2-carboxamide] |  | 5.39 | 7.97 | 
O=C(NCc1cn2cc(CNCC34CC(C(F)(F)F)(C3)C4)ccc2n1)c1cc(=O)n2ccccc2n1 [Compound 87, 4-oxo-N-({6-[({[3-(trifluoromethyl)bicyclo[1.1.1]pentan-1-yl]methyl}amino)methyl]imidazo[1,2-a]pyridin-2-yl}methyl)-4H-pyrido [1,2-a]pyrimidine-2-carboxamide] |  | ≤ 4.52 |  | 7.31
O=C(NCc1cn2cc(CNC3(c4ccccc4)COC3)ccc2n1)c1cc(=O)n2ccccc2n1 [Compound 89, 4-oxo-N-[(6-{[(3-phenyloxetan-3-yl)amino]methyl}imidazo[1,2-a]pyridin-2-yl)methyl]-4H-pyrido[1,2-a]pyrimidine-2-carboxamide] |  | 4.88 | 5.73 | 
O=C(NCc1cn2cc(CNCCC3CC3)ccc2n1)c1cc(=O)n2ccccc2n1 [Compound 103, N-[(6-{[(2-cyclopropylethyl)amino]methyl}imidazo[1,2-a]pyridin-2-yl)methyl]-4-oxo-4H-pyrido[1,2-a]pyrimidine-2-carboxamide] |  | 5.17 | 7.86 | 
O=C(NCc1cn2cc(CN3CCCCC3)ccc2n1)c1cc(=O)n2ccccc2n1 [Compound 104, 4-oxo-N-({6-[(piperidin-1-yl)methyl]imidazo[1,2-a]pyridin-2-yl}methyl)-4H-pyrido[1,2-a] pyrimidine-2-carboxamide] |  | 5.06 | 7.16 | 
O=C(NCc1cn2cc(CN[C@@H]3C[C@H]3C(F)(F)F)ccc2n1)c1cc(=O)n2ccccc2n1 [Compound 112, 4-oxo-N-{[6-({[(1R,2R)-2-(trifluoromethyl)cyclopropyl]amino}methyl)imidazo[1,2-a]pyridin-2-yl]methyl}-4H-pyrido[1,2-a] pyrimidine-2-carboxamide] |  | 4.90 | 6.12 | 
CN(Cc1ccc2nc(CNC(=O)c3cc(=O)n4ccccc4n3)cn2c1)CC1CCCCC1 [Compound 114, N-[(6-{[(cyclohexyl-methyl)(methyl)amino]methyl}imidazo [1,2-a]pyridin-2-yl)methyl]-4-oxo-4H-pyrido [1,2-a]pyrimidine-2-carboxamide] |  | 5.55 | 6.61 | 
O=C(NCc1cn2cc(CNC3CCC3)ccc2n1)c1cc(=O)n2ccccc2n1 [Compound 126, N-({6-[(cyclobutylamino)methyl]imidazo [1,2-a]pyridin-2-yl}methyl)-4-oxo-4H-pyrido [1,2-a]pyrimidine-2-carboxamide] |  | ≤ 4.52 | 7.10 | 
CC(C)(C)NCc1ccc2nc(CNC(=O)c3cc(=O)n4ccccc4n3)cn2c1 [Compound 127, N-({6-[(tert-butylamino)methyl]imidazo [1,2-a]pyridin-2-yl}methyl)-4-oxo-4H-pyrido[1,2-a] pyrimidine-2-carboxamide] |  | ≤ 4.52 | 6.37 | 
O=C(NCc1cn2cc(CNCc3ccccc3)ccc2n1)c1cccc2[nH]ncc12 [Compound 178, N-({6-[(benzylamino)methyl]imidazo [1,2-a]pyridin-2-yl}methyl)-1H-indazole-4-carboxamide] |  | 5.00 | 6.68 | 
CC1(C)CCN(Cc2ccc3nc(CNC(=O)c4cc(=O)n5ccccc5n4)cn3c2)CC1 [Compound 193, N-({6-[(4,4-dimethylpiperidin-1-yl)methyl]imidazo[1,2-a]pyridin-2-yl}methyl)-4-oxo-4H-pyrido[1,2-a]pyrimidine-2-carboxamide] |  | 5.61 | 7.91 | 
CC(C)(C)C(C)(C)NCc1ccc2nc(CNC(=O)c3cc(=O)n4ccccc4n3)cn2c1 [Compound 195, 4-oxo-N-[(6-{[(2,3,3-trimethylbutan-2-yl)amino]methyl}imidazo [1,2-a]pyridin-2-yl)methyl]-4H-pyrido[1,2-a]pyrimidine-2-carboxamide] |  | 5.01 | 7.49 | 
CC(NCc1ccc2nc(CNC(=O)c3cc(=O)n4ccccc4n3)cn2c1)C1CCCCC1 (stereo not drawn) [Compound 203, N-[(6-{[(1-cyclohexylethyl)amino]methyl}imidazo[1,2-a]pyridin-2-yl)methyl]-4-oxo-4H-pyrido [1,2-a]pyrimidine-2-carboxamide] |  | 5.06 | 7.49 | 
O=C(NCc1cn2cc(CNCC3(F)CCC3)ccc2n1)c1cc(=O)n2ccccc2n1 [Compound 206, N-{[6-({[(1-fluorocyclobutyl)methyl]amino}methyl)imidazo [1,2-a]pyridin-2-yl]methyl}-4-oxo-4H-pyrido [1,2-a]pyrimidine-2-carboxamide] |  | 5.04 | 7.81 | 
CC1(F)CCN(Cc2ccc3nc(CNC(=O)c4cc(=O)n5ccccc5n4)cn3c2)CC1 [Compound 207, N-({6-[(4-fluoro-4-methylpiperidin-1-yl)methyl]imidazo[1,2-a]pyridin-2-yl}methyl)-4-oxo-4H-pyrido [1,2-a]pyrimidine-2-carboxamide] |  | 4.99 | 7.42 | 
O=C(NCc1cn2cc(CNCC3(O)CCCCC3)ccc2n1)c1cc(=O)n2ccccc2n1 [Compound 209, N-{[6-({[(1-hydroxycyclohexyl)methyl]amino}methyl)imidazo [1,2-a]pyridin-2-yl]methyl}-4-oxo-4H-pyrido [1,2-a]pyrimidine-2-carboxamide] |  | 5.18 | 8.00 | 
O=C(NCc1cn2cc(CNCC3CCCC3)ccc2n1)c1cc(=O)n2ccccc2n1 [Compound 210, N-[(6-{[(cyclopentyl-methyl)amino]methyl}imidazo [1,2-a]pyridin-2-yl)methyl]-4-oxo-4H-pyrido [1,2-a]pyrimidine-2-carboxamide] |  | 5.30 | 7.69 | 
O=C(NCc1cn2cc(CNCC3CCC(F)(F)C3)ccc2n1)c1cc(=O)n2ccccc2n1 (stereo not drawn) [Compound 211, N-{[6-({[(3,3-difluorocyclopentyl)methyl]amino}methyl)imidazo [1,2-a]pyridin-2-yl]methyl}-4-oxo-4H-pyrido[1,2-a]pyrimidine-2-carboxamide] |  | 4.94 | 7.71 | 
O=C(NCc1cn2cc(CNCCC3CC(F)(F)C3)ccc2n1)c1cc(=O)n2ccccc2n1 [Compound 213, N-{[6-({[2-(3,3-difluorocyclo-butyl)ethyl]amino}methyl)imidazo[1,2-a]pyridin-2-yl]methyl}-4-oxo-4H-pyrido [1,2-a]pyrimidine-2-carboxamide] |  | ≤ 4.52 | 7.38 | 
O=C(NCc1cn2cc(CNCC3CCC3F)ccc2n1)c1cc(=O)n2ccccc2n1 (stereo not drawn) [Compound 214, N-{[6-({[(2-fluorocyclobutyl)methyl]amino}methyl)imidazo [1,2-a]pyridin-2-yl]methyl}-4-oxo-4H-pyrido [1,2-a]pyrimidine-2-carboxamide] |  | 5.13 | 7.80 | 
O=C(NCc1cn2cc(CN3CCC4(CC3)CC4)ccc2n1)c1cc(=O)n2ccccc2n1 [Compound 216, N-{[6-({6-azaspiro[2.5]octan-6-yl}methyl)imidazo [1,2-a]pyridin-2-yl]methyl}-4-oxo-4H-pyrido [1,2-a]pyrimidine-2-carboxamide] |  | 5.45 | 7.83 | 
O=C(NCc1cn2cc(CNC[C@H]3C[C@H](F)C3)ccc2n1)c1cc(=O)n2ccccc2n1 [Compound 217, 4-oxo-N-({6-[({[(1r,3r)-3-fluorocyclo-butyl]methyl}amino)methyl]imidazo[1,2-a]pyridin-2-yl}methyl)-4H-pyrido[1,2-a] pyrimidine-2-carboxamide] |  | 5.53 | 8.12 | 
O=C(NCc1cn2cc(CNCCC3CC3)ccc2n1)c1cc(=O)c2ccccc2o1 [Compound 218] |  | 5.33 | 7.58 | 
O=C(NCc1cn2cc(CCNCc3ccccc3)ccc2n1)c1cc(=O)n2ccccc2n1 [Compound 235, N-({6-[2-(benzylamino)ethyl]imidazo[1,2-a]pyridin-2-yl}methyl)-4-oxo-4H-pyrido[1,2-a]pyrimidine-2-carboxamide] |  | ≤ 4.52 | 6.95 | 
O=C(NCc1cn2cc(CCNC3CCCCC3)ccc2n1)c1cc(=O)n2ccccc2n1 [Compound 236, N-({6-[2-(cyclohexylamino)ethyl]imidazo[1,2-a]pyridin-2-yl}methyl)-4-oxo-4H-pyrido[1,2-a]pyrimidine-2-carboxamide] |  | 4.93 | 7.54 | 
